What was measured:
[1] = test system: patient's CTC-derived organoid cultures; assay: Drug sensitivity assay of CTC-derived organoid cultures (CellTiter Glo ATP, relative cell viability); assay type: cell-based, human; conditions: for CTC sensitivity profiling: CTCs of patient; for relative cell viability: CTC-derived organoid cultures of patient, one week co-culture
Text: In some embodiments, first, a liquid biopsy of the patient is obtained, and CTCs are then isolated from the liquid biopsy, and the CTCs are then expanded to obtain the CTC-derived organoid cultures. The liquid biopsy is, for example, a blood sample, such as a peripheral venous blood sample. In one example, the CTCs were isolated from the liquid biopsy, and the biomimetic cell culture system was then used to expand the CTCs in vitro to form the CTC-derived organoid cultures. In one example, Ficoll-Paque centrifugation was used to isolate peripheral blood mononuclear cells (PBMCs) containing the CTCs from the blood sample. The cells were then seeded onto a substrate of binary colloidal crystal (BCC) containing silica and polymethyl methacrylate (PMMA), and cultured in the biomimetic cell culture system for three weeks, with replacement of culture medium every four days. The expansion of the organoid cultures could be monitored by optical microscopy, and the presence of the CTCs could be confirmed by EpCAM and CD45 immunofluorescence staining. The CTC-derived organoid cultures were positive for EpCAM and negative for CD45 in the immunofluorescence staining
In one example, the CTC-derived organoid cultures were resuspended in a culture medium, and then divided into aliquots and loaded to 96-well plates for drug sensitivity assays. The aliquots were divided into a control group (not reacted with a drug) and drug test groups (respectively reacted with different drugs). For advanced pancreatic ductal adenocarcinoma, gemcitabine, 5-fluorouracil (5-FU), erlotinib, irinotecan, olaparib, oxaliplatin, paclitaxel, palbociclib and trametinib were selected as candidate drugs and tested against the CTC-derived organoid cultures at concentrations according to the clinical pharmacokinetics of each of the drugs, in order to mimic the effect of a clinical dose in patients. Different drug treatments were respectively added to each of the wells in the 96-well plates, after which cultures were continued to co-culture for one week. At the end of the assay period, viable cell counts were measured using cytosolic adenosine triphosphate (ATP) abundance (CellTiter Glo, Promega, Madison Wis., USA) via a luminometer (Promega). The relative cell viabilities of the CTC-derived organoid cultures respectively corresponding to the 9 candidate drugs were calculated by the formula: relative cell viability=(viable cell counts of the drug test group/viable cell counts of the control group)×100%. Lower cell viability following application of test treatments was indicative of greater drug sensitivity and better anti-tumor effect. However, the present disclosure is not limited to the above example, and other test methods or calculation methods can be used to obtain the relative cell viabilities.

[2] = test system: pancreatic cancer; assay: Clinical course of individual pancreatic cancer patients under treatment; assay type: in vivo, human; conditions: patient
Protocol: In one example, clinical response to treatment in patients was evaluated using Response Evaluation Criteria in Solid Tumors (RECIST) version 1.1 criteria.

[3] = locally advanced pancreatic cancer
[4] = August 2019, 12 cycles of chemotherapy plus radiotherapy 44 Gy/20 Fx

With `O=c1[nH]cc(F)c(=O)[nH]1` [5-FU, 5-fluorouracil] the CTC sensitivity profiling [1, 3] was “resistance”.
For `C#Cc1cccc(Nc2ncnc3cc(OCCOC)c(OCCOC)cc23)c1` [erlotinib], the relative cell viability ([1]; locally advanced pancreatic cancer, clinical-PK concentration) was 27.8%.
For `CCc1c2c(nc3ccc(OC(=O)N4CCC(N5CCCCC5)CC4)cc13)-c1cc3c(c(=O)n1C2)COC(=O)[C@]3(O)CC` [irinotecan], the CTC sensitivity profiling [1, 3] was “resistance”.
`O=C(c1cc(Cc2n[nH]c(=O)c3ccccc23)ccc1F)N1CCN(C(=O)C2CC2)CC1` [olaparib] was tested, and the relative cell viability ([1]; metastatic pancreatic cancer) was 16.7%.
For `O=C1[O][Pt]2([NH][C@@H]3CCCC[C@H]3[NH]2)[O]C1=O` [oxaliplatin], the CTC sensitivity profiling [1, 3] was “resistance”.
`CC(=O)O[C@H]1C(=O)[C@@]2(C)[C@H]([C@H](OC(=O)c3ccccc3)[C@]3(O)C[C@H](OC(=O)[C@H](O)[C@@H](NC(=O)c4ccccc4)c4ccccc4)C(C)=C1C3(C)C)[C@]1(OC(C)=O)CO[C@@H]1C[C@@H]2O` [paclitaxel] was tested, and the CTC sensitivity profiling [1, 3] was “resistance”.
With FOLFIRINOX the “abdominal CT scan response, liver metastases” value [2, 4] was “partial response (PR)”, the “abdominal CT scan response, pancreatic mass” value [2, 4] was “stable disease (SD)” and the “follow-up CT scan response, pancreatic tumor” value ([2]; November 2019, with liver, bone and peritoneal seeding) was “progressive disease (PD)”.
